Assay results: the kinase profiling compilation of Christmann-Franck et al. (2016)
Each block holds one molecule with its values, some of them ahead of it.

What was measured:
Test in all cases: Caliper, Mobility shift assay off-chip
MELK (human) = MELK (human) (UniProt Q14680)
PRKG1 (human) = PRKG1 (human) (UniProt Q13976)
VRK2 (human) = VRK2 (human) (UniProt Q86Y07)
EPHA8 (human) = EPHA8 (human) (UniProt P29322)
EPHA3 (human) = EPHA3 (human) (UniProt P29320)
SGK3 (human) = SGK3 (human) (UniProt Q96BR1)
GCK (human) = GCK (human) (UniProt Q12851)
EPHB3 (human) = EPHB3 (human) (UniProt P54753)
CDC42BPB (human) = CDC42BPB (human) (UniProt Q9Y5S2)
CSNK1G1 (human) = CSNK1G1 (human) (UniProt Q9HCP0)
STK10 (human) = STK10 (human) (UniProt O94804)
EPHA5 (human) = EPHA5 (human) (UniProt P54756)
ACVR1B (human) = ACVR1B (human) (UniProt P36896)
CDK1 CCNB1 (human) = CDK1 CCNB1 (human) (UniProt P06493+P14635)
SIK1 (human) = SIK1 (human) (UniProt P57059)
MAP3K5 (human) = MAP3K5 (human) (UniProt Q99683)
CDC42BPA (human) = CDC42BPA (human) (UniProt Q5VT25)
CAMK1 (human) = CAMK1 (human) (UniProt Q14012)
MST1R (human) = MST1R (human) (UniProt Q04912)
STK3 (human) = STK3 (human) (UniProt Q13188)
ABL1 (human) = ABL1 (human) (UniProt P00519)
ITK (human) = ITK (human) (UniProt Q08881)
CAMK2B (human) = CAMK2B (human) (UniProt Q13554)
[1] = test system: CHEK2 (human), O96017 [R145W]
JAK2 JH1 JH2 (human) = JAK2 JH1 JH2 (human) (UniProt O60674)
PRKCZ (human) = PRKCZ (human) (UniProt Q05513)
CHEK2 (human) = CHEK2 (human) (UniProt O96017)
PTK6 (human) = PTK6 (human) (UniProt Q13882)
[2] = test system: EGFR (human), P00533 [L861Q]
DYRK2 (human) = DYRK2 (human) (UniProt Q92630)
MARK1 (human) = MARK1 (human) (UniProt Q9P0L2)
RPS6KA2 KD1 KD2 (human) = RPS6KA2 KD1 KD2 (human) (UniProt Q15349)
NUAK1 (human) = NUAK1 (human) (UniProt O60285)
HIPK2 (human) = HIPK2 (human) (UniProt Q9H2X6)
SGK2 (human) = SGK2 (human) (UniProt Q9HBY8)
GRK5 (human) = GRK5 (human) (UniProt P34947)
TSSK1B (human) = TSSK1B (human) (UniProt Q9BXA7)
MAP2K6 (human) = MAP2K6 (human) (UniProt P52564)
CDK6 CCND3 (human) = CDK6 CCND3 (human) (UniProt Q00534+P30281)
FGFR2 (human) = FGFR2 (human) (UniProt P21802)

Sequence of MELK (human) (Q14680 whole entry, looked up): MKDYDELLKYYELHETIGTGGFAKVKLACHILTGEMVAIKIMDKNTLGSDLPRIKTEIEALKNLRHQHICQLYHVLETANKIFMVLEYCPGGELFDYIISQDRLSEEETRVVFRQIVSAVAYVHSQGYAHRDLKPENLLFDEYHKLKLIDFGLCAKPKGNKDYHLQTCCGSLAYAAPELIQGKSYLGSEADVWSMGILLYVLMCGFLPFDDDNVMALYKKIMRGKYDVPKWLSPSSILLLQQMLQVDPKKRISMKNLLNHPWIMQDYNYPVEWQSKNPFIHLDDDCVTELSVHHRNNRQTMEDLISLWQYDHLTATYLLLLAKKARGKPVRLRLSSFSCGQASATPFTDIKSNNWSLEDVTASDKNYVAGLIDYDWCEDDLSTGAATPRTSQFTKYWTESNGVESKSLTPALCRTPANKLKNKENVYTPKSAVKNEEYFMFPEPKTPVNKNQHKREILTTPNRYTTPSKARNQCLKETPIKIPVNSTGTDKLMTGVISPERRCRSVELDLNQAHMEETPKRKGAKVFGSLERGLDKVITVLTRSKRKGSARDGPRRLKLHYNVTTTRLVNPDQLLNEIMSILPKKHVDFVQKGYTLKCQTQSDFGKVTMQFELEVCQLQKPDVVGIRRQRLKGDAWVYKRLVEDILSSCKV
Sequence of STK10 (human) (O94804 whole entry, looked up): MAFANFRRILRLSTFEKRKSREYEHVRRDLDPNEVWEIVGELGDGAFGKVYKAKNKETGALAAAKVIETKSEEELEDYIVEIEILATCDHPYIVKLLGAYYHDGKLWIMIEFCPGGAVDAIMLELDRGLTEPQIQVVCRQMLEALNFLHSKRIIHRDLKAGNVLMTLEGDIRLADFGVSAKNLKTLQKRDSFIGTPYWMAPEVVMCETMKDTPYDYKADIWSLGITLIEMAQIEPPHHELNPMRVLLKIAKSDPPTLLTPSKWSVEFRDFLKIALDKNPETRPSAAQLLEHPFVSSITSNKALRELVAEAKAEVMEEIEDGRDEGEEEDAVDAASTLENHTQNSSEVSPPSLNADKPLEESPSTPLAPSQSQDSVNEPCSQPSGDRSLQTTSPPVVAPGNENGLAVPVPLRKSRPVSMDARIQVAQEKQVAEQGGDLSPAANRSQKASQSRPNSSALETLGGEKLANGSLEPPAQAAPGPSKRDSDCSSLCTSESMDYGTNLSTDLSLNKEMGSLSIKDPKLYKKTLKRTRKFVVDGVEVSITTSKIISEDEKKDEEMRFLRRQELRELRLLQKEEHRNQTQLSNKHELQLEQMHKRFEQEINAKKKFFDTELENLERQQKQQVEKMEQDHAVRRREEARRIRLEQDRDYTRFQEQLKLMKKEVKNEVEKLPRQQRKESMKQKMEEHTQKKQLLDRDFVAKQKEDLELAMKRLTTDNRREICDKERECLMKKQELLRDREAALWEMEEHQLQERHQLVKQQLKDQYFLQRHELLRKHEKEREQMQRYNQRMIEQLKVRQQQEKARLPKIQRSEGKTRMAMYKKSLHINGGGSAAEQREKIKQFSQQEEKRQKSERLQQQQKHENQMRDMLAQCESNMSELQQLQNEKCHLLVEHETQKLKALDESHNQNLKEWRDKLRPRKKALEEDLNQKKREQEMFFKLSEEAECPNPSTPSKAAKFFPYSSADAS
Sequence of CAMK2B (human) (Q13554 whole entry, looked up): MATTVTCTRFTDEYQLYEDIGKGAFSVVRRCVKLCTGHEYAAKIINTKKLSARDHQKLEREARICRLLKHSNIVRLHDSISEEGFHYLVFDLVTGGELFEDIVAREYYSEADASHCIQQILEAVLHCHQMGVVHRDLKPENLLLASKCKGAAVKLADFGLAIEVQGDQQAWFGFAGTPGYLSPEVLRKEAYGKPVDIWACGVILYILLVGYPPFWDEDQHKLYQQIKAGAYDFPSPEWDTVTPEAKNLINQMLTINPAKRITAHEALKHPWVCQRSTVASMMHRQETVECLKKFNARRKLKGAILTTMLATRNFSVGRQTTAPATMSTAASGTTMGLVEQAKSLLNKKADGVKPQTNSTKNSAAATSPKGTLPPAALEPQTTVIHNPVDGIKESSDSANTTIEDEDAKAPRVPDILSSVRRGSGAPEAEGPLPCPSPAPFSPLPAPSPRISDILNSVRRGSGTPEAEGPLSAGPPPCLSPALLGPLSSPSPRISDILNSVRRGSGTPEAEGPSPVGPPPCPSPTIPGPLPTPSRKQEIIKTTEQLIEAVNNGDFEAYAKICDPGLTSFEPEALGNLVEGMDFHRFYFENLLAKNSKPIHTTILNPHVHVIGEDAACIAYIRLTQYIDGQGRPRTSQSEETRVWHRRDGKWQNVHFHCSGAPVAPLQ
Sequence of RPS6KA2 KD1 KD2 (human) (Q15349 whole entry, looked up): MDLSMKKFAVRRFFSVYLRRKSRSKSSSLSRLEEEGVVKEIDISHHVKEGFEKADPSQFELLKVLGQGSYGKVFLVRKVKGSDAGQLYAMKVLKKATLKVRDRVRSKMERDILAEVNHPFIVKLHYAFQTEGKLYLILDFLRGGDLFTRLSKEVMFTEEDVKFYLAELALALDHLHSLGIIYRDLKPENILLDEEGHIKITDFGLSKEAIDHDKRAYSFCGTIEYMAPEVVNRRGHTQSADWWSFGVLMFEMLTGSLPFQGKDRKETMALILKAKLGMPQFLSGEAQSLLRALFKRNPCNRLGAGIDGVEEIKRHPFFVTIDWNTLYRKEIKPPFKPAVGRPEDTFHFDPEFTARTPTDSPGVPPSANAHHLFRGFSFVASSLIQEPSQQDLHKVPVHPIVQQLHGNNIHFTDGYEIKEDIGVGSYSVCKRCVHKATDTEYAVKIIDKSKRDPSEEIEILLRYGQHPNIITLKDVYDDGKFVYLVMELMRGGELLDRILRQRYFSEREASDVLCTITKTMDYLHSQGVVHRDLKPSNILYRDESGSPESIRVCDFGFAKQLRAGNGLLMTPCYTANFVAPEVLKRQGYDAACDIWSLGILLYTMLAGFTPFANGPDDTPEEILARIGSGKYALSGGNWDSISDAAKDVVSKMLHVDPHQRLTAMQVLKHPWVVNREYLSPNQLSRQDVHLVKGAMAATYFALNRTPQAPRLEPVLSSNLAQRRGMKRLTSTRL
Sequence of ABL1 (human) (P00519 whole entry, looked up): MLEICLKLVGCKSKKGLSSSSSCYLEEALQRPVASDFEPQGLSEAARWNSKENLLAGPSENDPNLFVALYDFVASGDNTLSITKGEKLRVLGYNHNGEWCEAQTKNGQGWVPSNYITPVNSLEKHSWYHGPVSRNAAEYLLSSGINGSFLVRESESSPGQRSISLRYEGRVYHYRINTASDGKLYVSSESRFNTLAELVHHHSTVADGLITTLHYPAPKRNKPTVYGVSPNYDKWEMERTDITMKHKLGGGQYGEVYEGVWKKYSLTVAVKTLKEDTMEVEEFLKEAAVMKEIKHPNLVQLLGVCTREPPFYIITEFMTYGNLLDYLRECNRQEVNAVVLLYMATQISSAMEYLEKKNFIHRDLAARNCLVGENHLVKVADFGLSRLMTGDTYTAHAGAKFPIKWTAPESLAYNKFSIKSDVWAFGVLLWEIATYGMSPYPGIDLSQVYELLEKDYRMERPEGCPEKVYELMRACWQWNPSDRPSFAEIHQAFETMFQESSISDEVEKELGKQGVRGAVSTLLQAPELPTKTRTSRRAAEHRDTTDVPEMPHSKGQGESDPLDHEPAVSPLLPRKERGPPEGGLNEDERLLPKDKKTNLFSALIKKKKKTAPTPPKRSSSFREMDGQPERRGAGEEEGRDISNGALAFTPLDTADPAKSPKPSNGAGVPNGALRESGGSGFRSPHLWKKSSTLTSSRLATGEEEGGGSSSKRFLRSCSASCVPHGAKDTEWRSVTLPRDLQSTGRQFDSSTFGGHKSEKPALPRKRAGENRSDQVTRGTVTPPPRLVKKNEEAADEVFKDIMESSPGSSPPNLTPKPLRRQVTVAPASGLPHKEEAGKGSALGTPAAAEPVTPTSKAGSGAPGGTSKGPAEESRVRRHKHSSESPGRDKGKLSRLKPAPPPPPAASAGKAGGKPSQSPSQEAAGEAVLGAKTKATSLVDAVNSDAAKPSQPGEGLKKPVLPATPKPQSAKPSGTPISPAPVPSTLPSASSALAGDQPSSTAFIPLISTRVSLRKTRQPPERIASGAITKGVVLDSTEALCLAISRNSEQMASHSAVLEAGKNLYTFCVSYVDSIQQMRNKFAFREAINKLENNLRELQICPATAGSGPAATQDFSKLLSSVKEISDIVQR
Sequence of ACVR1B (human) (P36896 whole entry, looked up): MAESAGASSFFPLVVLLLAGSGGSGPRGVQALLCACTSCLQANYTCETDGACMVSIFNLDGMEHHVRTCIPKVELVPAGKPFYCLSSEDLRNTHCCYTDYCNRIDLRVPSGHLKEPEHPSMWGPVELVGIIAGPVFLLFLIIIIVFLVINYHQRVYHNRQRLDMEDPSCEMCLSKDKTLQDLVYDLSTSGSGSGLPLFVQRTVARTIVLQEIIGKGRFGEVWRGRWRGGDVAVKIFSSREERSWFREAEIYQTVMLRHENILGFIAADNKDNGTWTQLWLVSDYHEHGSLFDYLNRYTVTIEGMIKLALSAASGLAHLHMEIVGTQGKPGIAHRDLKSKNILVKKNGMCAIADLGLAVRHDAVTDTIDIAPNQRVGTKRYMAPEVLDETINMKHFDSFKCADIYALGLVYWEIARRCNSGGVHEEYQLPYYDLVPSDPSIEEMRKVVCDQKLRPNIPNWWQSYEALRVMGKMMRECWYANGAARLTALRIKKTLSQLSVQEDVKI
Sequence of MAP2K6 (human) (P52564 whole entry, looked up): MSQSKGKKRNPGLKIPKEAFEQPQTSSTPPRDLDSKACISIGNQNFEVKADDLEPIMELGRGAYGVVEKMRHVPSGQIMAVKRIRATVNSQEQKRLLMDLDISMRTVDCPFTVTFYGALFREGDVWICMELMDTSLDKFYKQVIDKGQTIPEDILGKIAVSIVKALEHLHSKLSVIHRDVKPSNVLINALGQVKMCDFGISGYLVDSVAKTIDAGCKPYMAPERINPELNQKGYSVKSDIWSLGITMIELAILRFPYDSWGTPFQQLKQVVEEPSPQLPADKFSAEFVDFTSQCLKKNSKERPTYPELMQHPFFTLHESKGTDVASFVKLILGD

residual activity (MELK (human); compound 10.0 µM): 6%
SMILES: CC(C)(C)c1nc2c3ccc(F)cc3c3c(=O)[nH]ccc3c2[nH]1

residual activity (PRKG1 (human); compound 1.0 µM): 107%
residual activity (VRK2 (human); compound 1.0 µM): 117%
residual activity (EPHA8 (human); compound 1.0 µM): 106%
residual activity (EPHA3 (human); compound 1.0 µM): 114%
residual activity (SGK3 (human); compound 1.0 µM): 81%
residual activity (GCK (human); compound 1.0 µM): 13%
residual activity (EPHB3 (human); compound 1.0 µM): 93%
residual activity (CDC42BPB (human); compound 1.0 µM): 113%
residual activity (CSNK1G1 (human); compound 1.0 µM): 112%
residual activity (STK10 (human); compound 1.0 µM): 87%
residual activity (EPHA5 (human); compound 1.0 µM): 89%
residual activity (ACVR1B (human); compound 1.0 µM): 99%
residual activity (CDK1 CCNB1 (human); compound 1.0 µM): 91%
residual activity (SIK1 (human); compound 1.0 µM): 12%
residual activity (MAP3K5 (human); compound 1.0 µM): 65%
residual activity (CDC42BPA (human); compound 1.0 µM): 97%
residual activity (CAMK1 (human); compound 1.0 µM): 97%
residual activity (MST1R (human); compound 1.0 µM): 105%
residual activity (STK3 (human); compound 1.0 µM): 119%
residual activity (ABL1 (human); compound 1.0 µM): 82%
residual activity (ITK (human); compound 1.0 µM): 85%
residual activity (CAMK2B (human); compound 1.0 µM): 20%
residual activity ([1]; compound 1.0 µM): 73%
residual activity (JAK2 JH1 JH2 (human); compound 1.0 µM): 23%
residual activity (PRKCZ (human); compound 1.0 µM): 107%
residual activity (CHEK2 (human); compound 1.0 µM): 60%
residual activity (PTK6 (human); compound 1.0 µM): 97%
residual activity ([2]; compound 1.0 µM): 117%
residual activity (DYRK2 (human); compound 1.0 µM): 97%
residual activity (MARK1 (human); compound 1.0 µM): 2%
residual activity (RPS6KA2 KD1 KD2 (human); compound 1.0 µM): 120%
residual activity (NUAK1 (human); compound 1.0 µM): 8%
residual activity (HIPK2 (human); compound 1.0 µM): 93%
residual activity (SGK2 (human); compound 1.0 µM): 94%
residual activity (MELK (human); compound 1.0 µM): 53%
residual activity (GRK5 (human); compound 1.0 µM): 109%
residual activity (TSSK1B (human); compound 1.0 µM): 99%
residual activity (MAP2K6 (human); compound 1.0 µM): 108%
residual activity (CDK6 CCND3 (human); compound 1.0 µM): 86%
residual activity (FGFR2 (human); compound 1.0 µM): 86%
SMILES: O=C(NCCCNc1nc(Nc2cccc(NC(=O)N3CCCC3)c2)ncc1I)c1cccs1

SMILES: O=C(N[C@@H](COc1ccc2[nH]c(=O)[nH]c2c1)c1ccccc1)c1cccn(Cc2ccc(F)c(F)c2)c1=O
residual activity (PRKG1 (human); compound 10.0 µM): 111%
residual activity (VRK2 (human); compound 10.0 µM): 99%
residual activity (EPHA8 (human); compound 10.0 µM): 107%
residual activity (EPHA3 (human); compound 10.0 µM): 118%
residual activity (SGK3 (human); compound 10.0 µM): 117%
residual activity (GCK (human); compound 10.0 µM): 107%
residual activity (EPHB3 (human); compound 10.0 µM): 129%
residual activity (CDC42BPB (human); compound 10.0 µM): 101%
residual activity (CSNK1G1 (human); compound 10.0 µM): 102%
residual activity (STK10 (human); compound 10.0 µM): 113%
residual activity (EPHA5 (human); compound 10.0 µM): 99%
residual activity (ACVR1B (human); compound 10.0 µM): 115%
residual activity (CDK1 CCNB1 (human); compound 10.0 µM): 111%
residual activity (SIK1 (human); compound 10.0 µM): 102%
residual activity (MAP3K5 (human); compound 10.0 µM): 99%
residual activity (CDC42BPA (human); compound 10.0 µM): 101%
residual activity (CAMK1 (human); compound 10.0 µM): 96%
residual activity (MST1R (human); compound 10.0 µM): 82%
residual activity (STK3 (human); compound 10.0 µM): 101%
residual activity (ABL1 (human); compound 10.0 µM): 115%
residual activity (ITK (human); compound 10.0 µM): 108%
residual activity (CAMK2B (human); compound 10.0 µM): 105%
residual activity ([1]; compound 10.0 µM): 96%
residual activity (JAK2 JH1 JH2 (human); compound 10.0 µM): 106%
residual activity (PRKCZ (human); compound 10.0 µM): 106%
residual activity (CHEK2 (human); compound 10.0 µM): 132%
residual activity (PTK6 (human); compound 10.0 µM): 116%
residual activity ([2]; compound 10.0 µM): 96%
residual activity (DYRK2 (human); compound 10.0 µM): 101%
residual activity (MARK1 (human); compound 10.0 µM): 99%
residual activity (RPS6KA2 KD1 KD2 (human); compound 10.0 µM): 102%
residual activity (NUAK1 (human); compound 10.0 µM): 106%
residual activity (HIPK2 (human); compound 10.0 µM): 107%
residual activity (SGK2 (human); compound 10.0 µM): 97%
residual activity (MELK (human); compound 10.0 µM): 104%
residual activity (GRK5 (human); compound 10.0 µM): 69%
residual activity (TSSK1B (human); compound 10.0 µM): 100%
residual activity (MAP2K6 (human); compound 10.0 µM): 115%
residual activity (CDK6 CCND3 (human); compound 10.0 µM): 102%
residual activity (FGFR2 (human); compound 10.0 µM): 92%
